Reference: patent US8192962B2, “Processes for detecting toxic substances” (Daikin Industries, Ltd., priority 2001, dated 2012)

Test system: Mitochondria-located protein genes
Assay: DNA chip mRNA expression in yeast, mitochondria-located protein genes (Table 2)
Type: cell-based, Saccharomyces cerevisiae S288C
Conditions: cells incubated two hours with the chemical substance
Method in brief: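 Values are treated/untreated fluorescence ratios from a whole-genome yeast DNA chip hybridized over 12 hours at 65° C with Cy3- or Cy5-labelled cDNA from poly(A) mRNA. Log-phase S288C yeast in YPD at 25° C had received a single toxic chemical for two hours, dosed to slow growth without killing.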

Which results are given for CN(C)C(=S)SSC(=S)N(C)C [(10), Tetramethylthiuram disulfide]?
The level of expressed mRNA in the presence of chemical substance/The level of expressed mRNA in the absence of chemical substance (yeast gene YJR121W): 1.3; The level of expressed mRNA in the presence of chemical substance/The level of expressed mRNA in the absence of chemical substance (yeast gene YKL003C): 2.2; The level of expressed mRNA in the presence of chemical substance/The level of expressed mRNA in the absence of chemical substance (yeast gene YKL016C): 1.8; The level of expressed mRNA in the presence of chemical substance/The level of expressed mRNA in the absence of chemical substance (yeast gene YKL141W): 0.5; The level of expressed mRNA in the presence of chemical substance/The level of expressed mRNA in the absence of chemical substance (yeast gene YKL142W): 5.9; The level of expressed mRNA in the presence of chemical substance/The level of expressed mRNA in the absence of chemical substance (yeast gene YKL148C): 1.7; The level of expressed mRNA in the presence of chemical substance/The level of expressed mRNA in the absence of chemical substance (yeast gene YKL170W): 1.1; The level of expressed mRNA in the presence of chemical substance/The level of expressed mRNA in the absence of chemical substance (yeast gene YKL194C): 1.4; The level of expressed mRNA in the presence of chemical substance/The level of expressed mRNA in the absence of chemical substance (yeast gene YKR066C): 2.4; The level of expressed mRNA in the presence of chemical substance/The level of expressed mRNA in the absence of chemical substance (yeast gene YLL041C): 0.8; The level of expressed mRNA in the presence of chemical substance/The level of expressed mRNA in the absence of chemical substance (yeast gene YLR038C): 0.9; The level of expressed mRNA in the presence of chemical substance/The level of expressed mRNA in the absence of chemical substance (yeast gene YLR259C): 2.6; The level of expressed mRNA in the presence of chemical substance/The level of expressed mRNA in the absence of chemical substance (yeast gene YLR295C): 1.2; The level of expressed mRNA in the presence of chemical substance/The level of expressed mRNA in the absence of chemical substance (yeast gene YLR304C): 2.2; The level of expressed mRNA in the presence of chemical substance/The level of expressed mRNA in the absence of chemical substance (yeast gene YLR348C): 1.3; The level of expressed mRNA in the presence of chemical substance/The level of expressed mRNA in the absence of chemical substance (yeast gene YLR395C): 0.9; The level of expressed mRNA in the presence of chemical substance/The level of expressed mRNA in the absence of chemical substance (yeast gene YML054C): 1.8; The level of expressed mRNA in the presence of chemical substance/The level of expressed mRNA in the absence of chemical substance (yeast gene YML120C): 1.5; The level of expressed mRNA in the presence of chemical substance/The level of expressed mRNA in the absence of chemical substance (yeast gene YML129C): 2.2; The level of expressed mRNA in the presence of chemical substance/The level of expressed mRNA in the absence of chemical substance (yeast gene YMR023C): 2.6; The level of expressed mRNA in the presence of chemical substance/The level of expressed mRNA in the absence of chemical substance (yeast gene YMR035W): 1.6; The level of expressed mRNA in the presence of chemical substance/The level of expressed mRNA in the absence of chemical substance (yeast gene YMR083W): 1.1; The level of expressed mRNA in the presence of chemical substance/The level of expressed mRNA in the absence of chemical substance (yeast gene YMR089C): 2.5; The level of expressed mRNA in the presence of chemical substance/The level of expressed mRNA in the absence of chemical substance (yeast gene YMR152W): 1.3; The level of expressed mRNA in the presence of chemical substance/The level of expressed mRNA in the absence of chemical substance (yeast gene YMR203W): 1.2; The level of expressed mRNA in the presence of chemical substance/The level of expressed mRNA in the absence of chemical substance (yeast gene YMR267W): 0.8; The level of expressed mRNA in the presence of chemical substance/The level of expressed mRNA in the absence of chemical substance (yeast gene YNL055C): 1.0; The level of expressed mRNA in the presence of chemical substance/The level of expressed mRNA in the absence of chemical substance (yeast gene YNL071W): 1.2; The level of expressed mRNA in the presence of chemical substance/The level of expressed mRNA in the absence of chemical substance (yeast gene YNL073W): 1.8; The level of expressed mRNA in the presence of chemical substance/The level of expressed mRNA in the absence of chemical substance (yeast gene YNL104C): 2.0; The level of expressed mRNA in the presence of chemical substance/The level of expressed mRNA in the absence of chemical substance (yeast gene YNL256W): 0.6; The level of expressed mRNA in the presence of chemical substance/The level of expressed mRNA in the absence of chemical substance (yeast gene YOL096C): 1.4; The level of expressed mRNA in the presence of chemical substance/The level of expressed mRNA in the absence of chemical substance (yeast gene YOR020C): 2.6; The level of expressed mRNA in the presence of chemical substance/The level of expressed mRNA in the absence of chemical substance (yeast gene YOR037W): 1.0; The level of expressed mRNA in the presence of chemical substance/The level of expressed mRNA in the absence of chemical substance (yeast gene YOR100C): 2.6; The level of expressed mRNA in the presence of chemical substance/The level of expressed mRNA in the absence of chemical substance (yeast gene YOR130C): 1.7; The level of expressed mRNA in the presence of chemical substance/The level of expressed mRNA in the absence of chemical substance (yeast gene YOR142W): 1.5; The level of expressed mRNA in the presence of chemical substance/The level of expressed mRNA in the absence of chemical substance (yeast gene YOR150W): 1.8; The level of expressed mRNA in the presence of chemical substance/The level of expressed mRNA in the absence of chemical substance (yeast gene YOR176W): 0.5; The level of expressed mRNA in the presence of chemical substance/The level of expressed mRNA in the absence of chemical substance (yeast gene YOR187W): 0.8; The level of expressed mRNA in the presence of chemical substance/The level of expressed mRNA in the absence of chemical substance (yeast gene YOR316C): 2.0; The level of expressed mRNA in the presence of chemical substance/The level of expressed mRNA in the absence of chemical substance (yeast gene YPL040C): 1.2; The level of expressed mRNA in the presence of chemical substance/The level of expressed mRNA in the absence of chemical substance (yeast gene YPL134C): 0.8; The level of expressed mRNA in the presence of chemical substance/The level of expressed mRNA in the absence of chemical substance (yeast gene YPL135W): 2.8; The level of expressed mRNA in the presence of chemical substance/The level of expressed mRNA in the absence of chemical substance (yeast gene YPL215W): 1.2; The level of expressed mRNA in the presence of chemical substance/The level of expressed mRNA in the absence of chemical substance (yeast gene YPL262W): 5.8; The level of expressed mRNA in the presence of chemical substance/The level of expressed mRNA in the absence of chemical substance (yeast gene YPR024W): 1.7; The level of expressed mRNA in the presence of chemical substance/The level of expressed mRNA in the absence of chemical substance (yeast gene YPR037C): 1.3; The level of expressed mRNA in the presence of chemical substance/The level of expressed mRNA in the absence of chemical substance (yeast gene YPR047W): 1.9; The level of expressed mRNA in the presence of chemical substance/The level of expressed mRNA in the absence of chemical substance (yeast gene YPR134W): 2.3
